According to publication PMC3958129, “Enzyme kinetics and distinct modulation of the protein kinase N family of kinases by lipid activators and small molecule inhibitors” (Bioscience Reports, 2014):
Read-outs that look alike come from different tables or passages of the source.

Experiments:
PKN1 [1] = molecular target: T1, PKN1 (Homo sapiens, UniProt Q16512); assay: Bisubstrate steady-state kinetic analysis of PKN1 in the presence of arachidonic acid
PKN2 [2] = molecular target: T2, PKN2 (Homo sapiens, UniProt Q16513); assay: Bisubstrate steady-state kinetic analysis of PKN2 in the presence of arachidonic acid
T2 sequence (Q16513 whole entry): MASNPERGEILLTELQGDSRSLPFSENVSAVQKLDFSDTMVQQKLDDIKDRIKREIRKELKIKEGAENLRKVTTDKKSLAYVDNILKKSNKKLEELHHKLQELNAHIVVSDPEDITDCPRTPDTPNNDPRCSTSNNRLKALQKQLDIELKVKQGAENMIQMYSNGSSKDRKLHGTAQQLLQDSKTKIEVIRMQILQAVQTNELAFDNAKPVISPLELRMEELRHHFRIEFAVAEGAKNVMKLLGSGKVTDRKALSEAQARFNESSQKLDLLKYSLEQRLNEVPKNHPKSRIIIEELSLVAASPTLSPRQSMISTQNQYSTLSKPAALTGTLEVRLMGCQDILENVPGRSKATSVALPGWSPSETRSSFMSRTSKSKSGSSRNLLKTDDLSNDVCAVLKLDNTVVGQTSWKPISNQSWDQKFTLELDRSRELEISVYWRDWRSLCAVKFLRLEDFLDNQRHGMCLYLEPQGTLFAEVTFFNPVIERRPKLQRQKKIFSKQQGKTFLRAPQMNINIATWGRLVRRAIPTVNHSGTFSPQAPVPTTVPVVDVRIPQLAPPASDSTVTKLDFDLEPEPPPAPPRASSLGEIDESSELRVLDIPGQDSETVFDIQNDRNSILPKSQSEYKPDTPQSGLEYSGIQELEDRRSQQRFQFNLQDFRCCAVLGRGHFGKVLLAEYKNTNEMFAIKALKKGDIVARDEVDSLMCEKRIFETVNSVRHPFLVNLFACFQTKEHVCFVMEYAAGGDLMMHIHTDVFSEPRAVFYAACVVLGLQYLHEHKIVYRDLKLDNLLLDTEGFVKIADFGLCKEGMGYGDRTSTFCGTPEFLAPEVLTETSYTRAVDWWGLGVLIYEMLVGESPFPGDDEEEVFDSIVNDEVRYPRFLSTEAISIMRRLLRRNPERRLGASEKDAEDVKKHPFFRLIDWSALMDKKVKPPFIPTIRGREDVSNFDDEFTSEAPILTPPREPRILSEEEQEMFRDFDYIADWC

PKN3 [3] = molecular target: T3, PKN3 (Homo sapiens, UniProt Q6P5Z2); assay: Bisubstrate steady-state kinetic analysis of PKN3 in the presence of arachidonic acid
T3 sequence (Q6P5Z2 whole entry): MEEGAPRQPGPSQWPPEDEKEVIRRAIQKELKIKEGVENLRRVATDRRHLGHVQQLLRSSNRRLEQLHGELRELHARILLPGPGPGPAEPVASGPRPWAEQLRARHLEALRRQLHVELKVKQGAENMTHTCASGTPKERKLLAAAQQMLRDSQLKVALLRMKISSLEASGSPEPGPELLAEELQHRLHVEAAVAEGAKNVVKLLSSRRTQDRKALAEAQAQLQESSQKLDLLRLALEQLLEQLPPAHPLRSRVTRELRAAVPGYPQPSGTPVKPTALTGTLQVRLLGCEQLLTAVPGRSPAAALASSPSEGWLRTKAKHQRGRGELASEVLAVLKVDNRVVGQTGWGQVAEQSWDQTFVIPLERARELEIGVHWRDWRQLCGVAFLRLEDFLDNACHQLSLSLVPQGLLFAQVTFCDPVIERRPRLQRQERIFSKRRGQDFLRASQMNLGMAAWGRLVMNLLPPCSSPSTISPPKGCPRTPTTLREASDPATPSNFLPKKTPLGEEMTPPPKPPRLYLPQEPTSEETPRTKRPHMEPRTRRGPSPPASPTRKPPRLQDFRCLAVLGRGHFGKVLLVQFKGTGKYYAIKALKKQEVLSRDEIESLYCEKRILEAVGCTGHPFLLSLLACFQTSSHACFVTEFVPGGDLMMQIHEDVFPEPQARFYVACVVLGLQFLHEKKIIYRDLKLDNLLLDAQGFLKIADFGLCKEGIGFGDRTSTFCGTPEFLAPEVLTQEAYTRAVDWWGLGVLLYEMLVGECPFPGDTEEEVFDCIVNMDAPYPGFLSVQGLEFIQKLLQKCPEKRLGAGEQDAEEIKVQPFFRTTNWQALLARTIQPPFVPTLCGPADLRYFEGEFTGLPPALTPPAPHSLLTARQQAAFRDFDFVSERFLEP

PKN3 [4] = molecular target: T3, PKN3; assay: Lipid activation of PKN3 kinase activity, off-chip mobility shift assay; assay type: biochemical; parameters: Full-length, FLAG-tagged human PKN1, PKN2 and PKN3 were expressed in mammalian HEK-293 cells
Method: (§1) Lipids were supplied as a solid powders, ethanol, or chloroform solutions. All solids were dissolved directly into assay buffer and briefly water bath sonicated at room temperature for 10 min. Lipids supplied as solutions in organic solvent were dried under a gentle stream of nitrogen, resuspended in assay buffer, and similarly sonicated. All lipids were prepared fresh daily.
(§2) The activity of all PKN proteins was monitored through the use of a highly sensitive off-chip mobility shift assay utilizing a LabChip EZ Reader II instrument (Caliper Life Sciences/PerkinElmer); this assay format has been described elsewhere. Kinase activity was monitored through the phosphorylation of a 5-FAM-labelled PKN substrate peptide found through Pfizer in-house optimization efforts and derived from the amino acid sequence of GSK3α (accession no. AAH51865.1) with the following sequence: 5-FAM-C6-[…]-NH2. The likely site of phosphorylation is underlined, as determined through comparison with the published phosphorylation consensus sequence for PKN1 and PKN3 substrates. Reaction buffer contained 25 mM Tris, pH 8.0, 5 mM MgCl2, 0.002% CHAPS and 2 mM DTT, with indicated protein, ATP and peptide concentrations. Peptide concentration was adjusted according to purity and peptide content. For inhibition studies, the inhibitor was pre-incubated with enzyme for 15 min at room temperature. All reactions were initiated with ATP and conducted at room temperature (~22°C). Reactions were terminated by the addition of EDTA, pH 8.0, at a final concentration of 25 mM. All reaction rates were determined to be linear with respect to time and enzyme concentration where no more than 20% of peptide substrate had been converted to product. Aliquots of each reaction were transferred in duplicate to a 384-well plate and analysed on a LabChip EZ Reader II with separation buffer containing 100 mM Hepes, pH 7.5, 0.015% Brij-35, 1 mM EDTA, 0.1% CR3 coating reagent, 1×CR8 coating reagent and 5% DMSO, with the following settings: downstream voltage: −500 V, upstream voltage: −2300 V, base pressure: −0.5 psi; screen pressure: −1.7 psi.
Ki values for representative inhibitors were determined by fitting initial reaction velocities to eqn (2) for competitive inhibition using the method of non-linear least-squares using GraphPad Prism. Turnover number (kcat) was calculated by normalizing Vmax values for enzyme concentration.
(§3) Figure 2 PKN responses to lipid activators in biochemical assays Lipids were prepared as described under the Experimental section, and kinase activity of PKN isoforms was measured using off-chip mobility shift assay described in the Methods section. Each lipid was titrated in the presence of 1 nM, 5 nM and 3 nM PKN1–3, respectively, 3 μM peptide and 500 μM ATP. vi is the initial rate at each concentration of lipid activator and vo is the initial rate in the absence of lipid.

PKN1 [5] = molecular target: T1, PKN1; assay: Lipid activation of PKN1 kinase activity, off-chip mobility shift assay; assay type: biochemical; parameters: Full-length, FLAG-tagged human PKN1, PKN2 and PKN3 were expressed in mammalian HEK-293 cells; host or cells: HEK-293 (transient transfection, pcDNA4/TO); conditions: saturating ATP (500 μM), 3 μM peptide, 1 nM PKN1; for PKN1 Maximal fold activation: increase in initial rate
Method: as §1
as §2, with “psi. […]” for “psi.”
as §3

PKN2 [6] = molecular target: T2, PKN2; assay: Lipid activation of PKN2 kinase activity, off-chip mobility shift assay; assay type: biochemical; parameters: Full-length, FLAG-tagged human PKN1, PKN2 and PKN3 were expressed in mammalian HEK-293 cells; host or cells: HEK-293 (transient transfection, pcDNA4/TO)
Method: as §1
as §2, with “psi. […]” for “psi.”
as §3

PKN2 [7] = test system: PKN2; parameters: method as in PMID 17850214, PMID 10998351; conditions: ref [29],[30], cited from earlier work
PKN1 [8] = molecular target: T1, PKN1; assay: PKN1 kinase inhibition, off-chip mobility shift assay; assay type: biochemical; parameters: Full-length, FLAG-tagged human PKN1, PKN2 and PKN3 were expressed in mammalian HEK-293 cells; host or cells: HEK-293 (transient transfection, pcDNA4/TO)
RIP2 = conditions: read-out: IC50 RIP2; panel of over 70 protein kinases; ref [29]; cited from earlier work
Lck = conditions: read-out: IC50 Lck; panel of over 70 protein kinases; ref [29]; cited from earlier work
Src = conditions: read-out: IC50 Src; panel of over 70 protein kinases; ref [29]; cited from earlier work
CK1δ = conditions: read-out: IC50 CK1δ; panel of over 70 protein kinases; ref [29]; cited from earlier work
CSK = conditions: read-out: IC50 CSK; panel of over 70 protein kinases; ref [29]; cited from earlier work
PKN3 [9] = molecular target: T3, PKN3; assay: PKN3 kinase inhibition, off-chip mobility shift assay; assay type: biochemical; parameters: Full-length, FLAG-tagged human PKN1, PKN2 and PKN3 were expressed in mammalian HEK-293 cells
[10] = 100 μM vs 0 μM arachidonic acid

T1 sequence (Q16512 whole entry): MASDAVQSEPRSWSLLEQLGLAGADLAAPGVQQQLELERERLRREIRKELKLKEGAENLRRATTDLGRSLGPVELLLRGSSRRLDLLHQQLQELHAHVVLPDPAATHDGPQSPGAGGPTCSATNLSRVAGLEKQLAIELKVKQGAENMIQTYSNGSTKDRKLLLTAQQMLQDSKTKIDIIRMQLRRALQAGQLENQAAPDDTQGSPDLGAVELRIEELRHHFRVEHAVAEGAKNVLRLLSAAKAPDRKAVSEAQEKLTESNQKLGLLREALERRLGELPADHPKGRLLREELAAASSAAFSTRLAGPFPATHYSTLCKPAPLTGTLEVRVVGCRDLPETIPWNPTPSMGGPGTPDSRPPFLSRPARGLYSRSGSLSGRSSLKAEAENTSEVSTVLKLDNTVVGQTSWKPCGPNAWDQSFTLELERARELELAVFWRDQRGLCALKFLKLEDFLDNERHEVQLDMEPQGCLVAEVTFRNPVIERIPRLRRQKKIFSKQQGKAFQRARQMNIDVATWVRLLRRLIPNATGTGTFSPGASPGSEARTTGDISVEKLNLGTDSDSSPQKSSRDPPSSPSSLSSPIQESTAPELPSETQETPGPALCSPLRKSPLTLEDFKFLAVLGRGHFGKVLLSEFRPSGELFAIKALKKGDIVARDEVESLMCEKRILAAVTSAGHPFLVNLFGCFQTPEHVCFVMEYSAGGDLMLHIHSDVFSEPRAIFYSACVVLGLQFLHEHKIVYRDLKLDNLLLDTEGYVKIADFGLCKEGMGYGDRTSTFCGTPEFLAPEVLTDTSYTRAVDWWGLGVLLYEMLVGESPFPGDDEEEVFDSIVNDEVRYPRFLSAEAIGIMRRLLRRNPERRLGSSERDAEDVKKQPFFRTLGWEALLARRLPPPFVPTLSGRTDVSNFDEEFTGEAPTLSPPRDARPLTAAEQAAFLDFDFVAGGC

CCCCC/C=C\C/C=C\C/C=C\C/C=C\CCCC(=O)O [Arachidonic Acid]
Kia of PKN1 (equilibrium dissociation constant of ATP) (PKN1 [1]; 100 μM arachidonic acid): 19 ± 10 µM
kcat of PKN1 (PKN1 [1]; 100 μM arachidonic acid): 13 ± 6 s⁻¹
effect on ATP KM for PKN1 (PKN1 [1]; [10]): relatively unaffected
increase in catalytic efficiency (kcat/KM,Pep) of PKN1 (PKN1 [1]; [10]): 32 fold
increase in kcat for PKN1 (PKN1 [1]; [10]): 18 fold
Kia of PKN2 (equilibrium dissociation constant of ATP) (PKN2 [2]; 100 μM arachidonic acid): 2 ± 1 µM
kcat of PKN2 (PKN2 [2]; 100 μM arachidonic acid): 0.9 ± 0.1 s⁻¹
increase in catalytic efficiency (kcat/KM,Pep) of PKN2 (PKN2 [2]; [10]): 12 fold
increase in kcat for PKN2 (PKN2 [2]; [10]): 9 fold
increase in kcat/KM,ATP of PKN2 (PKN2 [2]; [10]): 45 fold
reduction of ATP KM for PKN2 (PKN2 [2]; [10]): 6 fold
Kia of PKN3 (equilibrium dissociation constant of ATP) (PKN3 [3]; 5 μM arachidonic acid): 14 ± 3 µM
kcat of PKN3 (PKN3 [3]; 5 μM arachidonic acid): 1.1 ± 0.1 s⁻¹
reduction of ATP KM for PKN3 (PKN3 [3]; 5 μM vs 0 μM arachidonic acid): 3 fold
effect on kcat for PKN3 (PKN3 [3]; arachidonic acid at 5 μM): no effect
decrease in KM,Pep of PKN3 (PKN3 [3]; arachidonic acid at 5 μM vs 0 μM): 4 fold
effect on PKN3 kinase activity (PKN3 [4]; higher concentrations of arachidonic acid (above 5 μM)): significantly inhibited
PKN3 Maximal fold activation (PKN3 [4]; increase in initial rate, saturating ATP (500 μM), 3 μM peptide, 3 nM PKN3): <2 fold
effect on PKN3 kinase activity (PKN3 [4]; relatively low (5 μM) concentration of arachidonic acid): slightly stimulated
PKN1 Maximal fold activation (PKN1 [5]): 16 fold
PKN1 Maximal fold activation (PKN1 [5]; listed as arachidonic acid): 10–16 fold
EC50 (PKN1 [5]; lipid activator): 11000 ± 1000 nM
effect on PKN2 kinase activity (PKN2 [6]; in words, saturating ATP): increased
PKN2 Maximal fold activation (PKN2 [6]; increase in initial rate, saturating ATP (500 μM), 3 μM peptide, 5 nM PKN2): 7 fold
EC50 (PKN2 [6]; lipid activator, saturating ATP (500 μM), 3 μM peptide, 5 nM PKN2): 9000 ± 1000 nM

C[C@@H](N)[C@H]1CC[C@H](C(=O)Nc2ccncc2)CC1 [Compound 7, Y27632]
Ki (PKN1 [8]; absence of lipids, fit to competitive inhibition, ±S.D., n=2, read-out: PKN1, Ki): 700 ± 200 nM

Cc1ccc(-c2nn(C(C)(C)C)c3ncnc(N)c23)cc1 [Compound 8, PP1]
PKN2 remaining activity (PKN2 [7]; at 1 μM): 84%
IC50 (RIP2): 26 nM
IC50 (CK1δ): 170 nM
IC50 (CSK): 640 nM
Ki (PKN3 [9]): 1.3 ± 0.1 nM
Ki (PKN1 [8]): > 5000 nM
